In patent US20210253575A1, “PYRROLIDINE AMINE COMPOUNDS FOR THE TREATMENT OF AUTOIMMUNE DISEASE” (Hoffmann-La Roche Inc., priority 2018, published 2021) one finds IC50 data, which are given here for 23 molecules.

In the experiment the target is T1, human TLR9 (Homo sapiens, UniProt Q9NR96).
T1 sequence (Q9NR96 26-1032): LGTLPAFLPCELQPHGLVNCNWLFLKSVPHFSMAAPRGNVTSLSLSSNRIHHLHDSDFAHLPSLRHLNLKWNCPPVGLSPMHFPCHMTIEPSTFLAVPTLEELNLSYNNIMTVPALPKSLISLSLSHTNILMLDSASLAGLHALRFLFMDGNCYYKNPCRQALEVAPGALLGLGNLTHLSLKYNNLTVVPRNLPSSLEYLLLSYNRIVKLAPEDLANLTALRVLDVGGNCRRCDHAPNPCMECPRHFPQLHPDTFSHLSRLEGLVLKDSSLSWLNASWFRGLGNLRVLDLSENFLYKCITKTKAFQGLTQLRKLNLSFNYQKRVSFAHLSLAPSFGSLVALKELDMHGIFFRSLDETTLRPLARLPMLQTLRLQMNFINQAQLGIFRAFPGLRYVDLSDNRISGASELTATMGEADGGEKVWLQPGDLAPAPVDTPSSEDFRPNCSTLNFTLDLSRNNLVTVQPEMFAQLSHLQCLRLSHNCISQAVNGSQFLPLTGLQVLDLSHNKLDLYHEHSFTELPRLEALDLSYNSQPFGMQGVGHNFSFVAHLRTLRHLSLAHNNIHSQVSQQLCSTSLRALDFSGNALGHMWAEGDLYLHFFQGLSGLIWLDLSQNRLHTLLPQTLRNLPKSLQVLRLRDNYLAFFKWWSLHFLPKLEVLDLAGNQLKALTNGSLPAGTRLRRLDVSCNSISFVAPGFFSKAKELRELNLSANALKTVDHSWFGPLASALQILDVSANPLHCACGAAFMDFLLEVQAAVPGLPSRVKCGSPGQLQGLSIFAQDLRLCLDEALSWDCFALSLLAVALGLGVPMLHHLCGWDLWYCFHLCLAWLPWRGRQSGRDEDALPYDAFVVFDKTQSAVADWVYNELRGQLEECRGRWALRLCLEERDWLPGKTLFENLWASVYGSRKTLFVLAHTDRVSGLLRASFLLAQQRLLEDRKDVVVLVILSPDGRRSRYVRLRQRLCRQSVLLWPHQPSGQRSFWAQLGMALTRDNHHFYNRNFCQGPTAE
Briefly: HEK293-Blue-hTLR-9 cells assay (SEAP reporter, ODN2006 stimulation). It counts as cell-based. The note with it: HEK293-Blue-hTLR9 cells, ODN2006 ligand, 20 hrs incubation. As to the method:
The following tests were carried out in order to determine the activity of the compounds of formula (I) in HEK293-Blue-hTLR-7/8/9 cells assay.
HEK293-Blue-hTLR-9 Cells Assay:
A stable HEK293-Blue-hTLR-9 cell line was purchased from InvivoGen (Cat. #: hkb-htlr9, San Diego, Calif., USA). These cells were originally designed for studying the stimulation of human TLR9 by monitoring the activation of NF-κB. A SEAP (secreted embryonic alkaline phosphatase) reporter gene was placed under the control of the IFN-β minimal promoter fused to five NF-κB and AP-1-binding sites. The SEAP was induced by activating NF-κB and AP-1 via stimulating HEK-Blue hTLR9 cells with TLR9 ligands. Therefore the reporter expression was declined by TLR9 antagonist under the stimulation of a ligand, such as ODN2006 (Cat. #: tlrl-2006-1, Invivogen, San Diego, Calif., USA), for incubation of 20 hrs. The cell culture supernatant SEAP reporter activity was determined using QUANTI-Blue™ kit (Cat. #: rep-qb1, Invivogen, San Diego, Calif., USA) at a wavelength of 640 nm, a detection medium that turns purple or blue in the presence of alkaline phosphatase.
HEK293-Blue-hTLR9 cells were incubated at a density of 250,000˜450,000 cells/mL in a volume of 170 μL in a 96-well plate in Dulbecco's Modified Eagle's medium (DMEM) containing 4.5 g/L glucose, 50 U/mL penicillin, […], […], 2 mM L-glutamine, 10% (v/v) heat-inactivated fetal bovine serum with addition of 20 μL test compound in a serial dilution in the presence of final DMSO at 1% and 10 μL of 20 uM ODN2006 in above DMEM, perform incubation under 37° C. in a CO2incubator for 20 hrs. Then 20 μL of the superatant from each well was incubated with 180 μL Quanti-blue substrate solution at 37° C. for 2 hrs and the absorbance was read at 620˜655 nm using a spectrophotometer. The signalling pathway that TLR9 activation leads to downstream NF-κB activation has been widely accepted, and therefore similar reporter assay was modified for evaluating TLR9 antagonist.
The term IC50 denotes the concentration at which inhibition is half-maximal. Read a high IC50 as a need for much substance. As to `N#Cc1ccc(N2C[C@H](CN3CCC(N4CCCC4)CC3)[C@@H](C(F)(F)F)C2)c2nccnc12` [Example 60, 8-[(3S,4R)-3-[(4-Pyrrolidin-1-yl-1-piperidyl)methyl]-4-(trifluoromethyl)pyrrolidin-1-yl]quinoxaline-5-carbonitrile], half-maximal inhibition (IC50) required 509 nM.
For `N#Cc1ccc(N2C[C@H](CN3CCC4(CCNCC4)C3)[C@@H](C(F)(F)F)C2)c2cccnc12` [Example 56, 5-[(3S,4R)-3-(2,8-Diazaspiro[4.5]decan-2-ylmethyl)-4-(trifluoromethyl)pyrrolidin-1-yl]quinoline-8-carbonitrile], the IC50 was 159 nM.
As for `FC(F)(F)c1ccc(N2CC(CN3CCC4(CCNCC4)CC3)C3(CC3)C2)c2nccnc12` (centres unmarked) [Example 31, 3-[[5-[8-(Trifluoromethyl)quinoxalin-5-yl]-5-azaspiro[2.4]heptan-7-yl]methyl]-3,9-diazaspiro[5.5]undecane], the midpoint of inhibition, the IC50, lay at 383 nM.
On to `FC(F)(F)c1ccc(N2C[C@@H](CN3CCC4(CCNC4)C3)[C@H](C(F)(F)F)C2)c2nccnc12` (relative stereo) [Example 19, 5-[Trans-3-(2,7-diazaspiro[4.4]nonan-2-ylmethyl)-4-(trifluoromethyl)pyrrolidin-1-yl]-8-(trifluoromethyl)quinoxaline], for which it took 815 nM to reach half-maximal inhibition (IC50).
Turning to `N#Cc1ccc(N2CC(CN3CC4(CCCNC4)C3)C3(CC3)C2)c2nccnc12` (centres unmarked) [Example 24, 8-[7-(2,8-Diazaspiro[3.5]nonan-2-ylmethyl)-5-azaspiro[2.4]heptan-5-yl]quinoxaline-5-carbonitrile], the midpoint of inhibition, the IC50, lay at 82 nM.
The molecule `N#Cc1ccc(N2C[C@H](CN3CCCC4(CCNCC4)C3)[C@@H](C(F)(F)F)C2)c2cccnc12` [Example 57, 5-[(3S,4R)-3-(2,9-Diazaspiro[5.5]undecan-2-ylmethyl)-4-(trifluoromethyl)pyrrolidin-1-yl]quinoline-8-carbonitrile] showed an IC50 of 331 nM.
For `C[C@H]1CN(c2ccc(C#N)c3ncccc23)C[C@@H]1CN1CCC2(CCNCC2)CC1` [Example 23, 5-[(3S,4R)-3-(3,9-diazaspiro[5.5]undecan-3-ylmethyl)-4-methyl-pyrrolidin-1-yl]quinoline-8-carbonitrile], the IC50 worked out at 45 nM.
As for `CC[C@@H]1CN(c2ccc(C#N)c3ncccc23)C[C@H]1CN1CCC2(CCNC2)C1` (relative stereo) [Example 29, 5-[Trans-3-(2,7-diazaspiro[4.4]nonan-2-ylmethyl)-4-ethyl-pyrrolidin-1-yl]quinoline-8-carbonitrile], the figure is 56 nM; as for `CC[C@@H]1CN(c2ccc(C#N)c3ncccc23)C[C@H]1CN1CCC2(CCNCC2)CC1` (relative stereo) [Example 15, 5-[Trans-3-(3,9-diazaspiro[5.5]undecan-3-ylmethyl)-4-ethyl-pyrrolidin-1-yl]quinoline-8-carbonitrile], 32 nM; as for `N#Cc1ccc(N2CCC(CN3CCC4(CCNCC4)CC3)C2)c2nccnc12` (centres unmarked) [Example 37, 8-[3-(3,9-Diazaspiro[5.5]undecan-3-ylmethyl)pyrrolidin-1-yl]quinoxaline-5-carbonitrile], 32 nM.
In turn, `N#Cc1ccc(N2C[C@H](CN3CC4(CC(N)C4)C3)[C@@H](C(F)(F)F)C2)c2cccnc12` [Example 53, 5-[(3S,4R)-3-[(6-Amino-2-azaspiro[3.3]heptan-2-yl)methyl]-4-(trifluoromethyl)pyrrolidin-1-yl]quinoline-8-carbonitrile] displayed an IC50 of 219 nM.
With `N#Cc1ccc(N2C[C@H](CN3CCNCC3)[C@@H](C(F)(F)F)C2)c2nccnc12` [Example 59, 8-[(3S,4R)-3-(Piperazin-1-ylmethyl)-4-(trifluoromethyl)pyrrolidin-1-yl]quinoxaline-5-carbonitrile] the figure was 2700 nM; with `N#Cc1ccc(N2C[C@H](CN3CCC4(CCNCC4)C3)[C@@H](C(F)(F)F)C2)c2nccnc12` [Example 46, 8-[(3S,4R)-3-(2,8-diazaspiro[4.5]decan-2-ylmethyl)-4-(trifluoromethyl)pyrrolidin-1-yl]quinoxaline-5-carbonitrile], 275 nM.
The molecule `N#Cc1ccc(N2CC(CN3CCC4(CCCCN4)CC3)C3(CC3)C2)c2nccnc12` (centres unmarked) [Example 65, 8-[7-(1,9-Diazaspiro[5.5]undecan-9-ylmethyl)-5-azaspiro[2.4]heptan-5-yl]quinoxaline-5-carbonitrile] gave an IC50 of 68 nM.
`CC(C)[C@@H]1CN(c2ccc(C#N)c3ncccc23)C[C@H]1CN1CCC2(CCNCC2)CC1` (relative stereo) [Example 36, 5-[Trans-3-(3,9-diazaspiro[5.5]undecan-3-ylmethyl)-4-isopropyl-pyrrolidin-1-yl]quinoline-8-carbonitrile] gave a half-inhibitory concentration (IC50) of 50 nM.
`C[C@H]1CN(c2ccc(C#N)c3nccnc23)C[C@@H]1CN1CCC2(CCNCC2)CC1` [Example 17, 8-[(3S,4R)-3-(3,9-diazaspiro[5.5]undecan-3-ylmethyl)-4-methyl-pyrrolidin-1-yl]quinoxaline-5-carbonitrile] gave a half-maximal inhibitory concentration (IC50) of 134 nM.
As for `N#Cc1ccc(N2CC(CN3CCC4(CCNCC4)C3)C3(CC3)C2)c2nccnc12` (centres unmarked) [Example 32, 8-[7-(2,8-Diazaspiro[4.5]decan-2-ylmethyl)-5-azaspiro[2.4]heptan-5-yl]quinoxaline-5-carbonitrile], the figure is 80 nM; as for `N#Cc1ccc(N2C[C@H](CN3CCC(N)CC3)[C@@H](C(F)(F)F)C2)c2nccnc12` [Example 26, 8-[(3S,4R)-3-[(4-Amino-1-piperidyl)methyl]-4-(trifluoromethyl)pyrrolidin-1-yl]quinoxaline-5-carbonitrile], 258 nM; as for `N#Cc1ccc(N2C[C@@H](CN3CCC4(CCNC4)C3)[C@H](C(F)F)C2)c2cccnc12` (relative stereo) [Example 34, 5-[Trans-3-(2,7-diazaspiro[4.4]nonan-2-ylmethyl)-4-(difluoromethyl)pyrrolidin-1-yl]quinoline-8-carbonitrile], 85 nM.
`N#Cc1ccc(N2C[C@H](CN3CCC4(CCCNC4)CC3)[C@@H](C(F)(F)F)C2)c2cccnc12` [Example 55, 5-[(3S,4R)-3-(2,9-Diazaspiro[5.5]undecan-9-ylmethyl)-4-(trifluoromethyl)pyrrolidin-1-yl]quinoline-8-carbonitrile] gave a half-inhibitory concentration (IC50) of 173 nM.
Consider `N#Cc1ccc(N2C[C@H](CN3CCC4(CCNC4)C3)[C@@H](C(F)(F)F)C2)c2cccnc12` (stereo partly drawn) [Example 9, 5-[(3S,4R)-3-(2,7-diazaspiro[4.4]nonan-2-ylmethyl)-4-(trifluoromethyl)pyrrolidin-1-yl]quinoline-8-carbonitrile], for which the IC50 came out at 104 nM.
`CC1(CN)CCCN(C[C@H]2CN(c3ccc(C#N)c4nccnc34)C[C@@H]2C(F)(F)F)C1` (stereo partly drawn) [Example 75, 8-[(3S,4R)-3-[[3-(aminomethyl)-3-methyl-1-piperidyl]methyl]-4-(trifluoromethyl)pyrrolidin-1-yl]quinoxaline-5-carbonitrile] came in with an IC50 of 767 nM.
In turn, `N#Cc1ccc(N2C[C@H](CN3CCC(N4CCCCC4)CC3)[C@@H](C(F)(F)F)C2)c2nccnc12` [Example 61, 8-[(3S,4R)-3-[[4-(1-Piperidyl)-1-piperidyl]methyl]-4-(trifluoromethyl)pyrrolidin-1-yl]quinoxaline-5-carbonitrile] returned an IC50 of 438 nM.
